{"source": "patent US10508069B2", "about": "“Acid/salt separation” (PURAC BIOCHEM B.V., priority 2011, dated 2019)", "key": {"[1]": {"assay": "Dicarboxylic acid remaining in solution while the HCl-acidified magnesium dicarboxylate solution is cooled (precipitation)", "type": "physicochemical", "procedure": "Magnesium hydroxide was added to a solution of dicarboxylic acid in water and heated up to complete dissolution. Four different carboxylic acids were used: adipic acid, fumaric acid, itaconic acid and 2,5-furandicarboxylic acid. The resulting dicarboxylate solution was meant to resemble a magnesium dicarboxylate solution obtained in a fermentation process. Although a magnesium dicarboxylate solution obtained in a fermentation process generally comprises compounds other than magnesium dicarbooxylate, such as a relatively large amount of impurities, the magnesium dicarboxylate solution prepared for this example was considered to sufficiently resemble a magnesium dicarboxylate solution obtained in a fermentation process to show the proof of principle that the invention works.\nA certain amount of an aqueous solution of HCl was added to the magnesium dicarboxylate solution from Example 1, as indicated in Table 2. […] During cooling, samples were taken of the solution for each 10±1 centigrade.\nThe amount of crystal produced was calculated as difference between the initial dicarboxylic mass and the remaining dicarboxylic mass in solution."}, "[2]": {"settings": "water at 20° C.; cited from earlier work"}, "[3]": {"procedure": "The solution was then cooled from 115° C. to 20° C. […] The precipitate was separated from the solution by filtration using a standard gravity filter."}, "[4]": {"procedure": "An amount of 333 g aqueous solution of HCl (37 wt. % wt %) was added to the thus prepared magnesium succinate solution. […] During cooling, samples were taken of the solution and the precipitate of the mixture at 62, 52, 40, 31 and 20° C. The composition of the samples and the total amount of precipitate formed were determined.\nThe samples were taken only from the solution (for sampling, stirrer was stopped some few seconds, and after crystal settling, a sample was taken from the supernatant).", "remark": "listed apart in the source"}, "[5]": {"settings": "20 ° C., MgCl2 solution, over precipitate"}, "[6]": {"settings": "30 ° C., MgCl2 solution, over precipitate"}, "[7]": {"settings": "40 ° C., MgCl2 solution, over precipitate"}, "[8]": {"settings": "50 ° C., MgCl2 solution, over precipitate"}, "[9]": {"settings": "60 ° C., MgCl2 solution after HCl acidulation, no precipitate yet"}}, "note": "Like-named read-outs stand apart in the source and are kept apart here.", "data": [{"smiles": "O=C(O)c1ccc(C(=O)O)o1", "note": "[2,5-Furandicarboxylic Acid, 2,5-furandicarboxylic acid]", "values": [{"measurement": "2,5-Furandicarboxylic Acid concentration in the solution", "setting": "[1]; 22 ° C., MgCl2 solution, over precipitate", "result": 0.06, "unit": "%"}, {"measurement": "2,5-Furandicarboxylic Acid concentration in the solution", "setting": "[1]; 32 ° C., MgCl2 solution, over precipitate", "result": 0.14, "unit": "%"}, {"measurement": "2,5-Furandicarboxylic Acid concentration in the solution", "setting": "[1]; 42 ° C., MgCl2 solution, over precipitate", "result": 0.33, "unit": "%"}, {"measurement": "2,5-Furandicarboxylic Acid concentration in the solution", "setting": "[1]; 53 ° C., MgCl2 solution, over precipitate", "result": 0.25, "unit": "%"}, {"measurement": "2,5-Furandicarboxylic Acid concentration in the solution", "setting": "[1]; 62 ° C., MgCl2 solution, over precipitate", "result": 0.38, "unit": "%"}, {"measurement": "2,5-Furandicarboxylic Acid concentration in the solution", "setting": "[1]; 72 ° C., MgCl2 solution, over precipitate", "result": 0.19, "unit": "%"}, {"measurement": "2,5-Furandicarboxylic Acid concentration in the solution", "setting": "[1]; 84 ° C., MgCl2 solution, over precipitate", "result": 0.52, "unit": "%"}]}, {"smiles": "O=C(O)CCCCC(=O)O", "note": "[Adipic Acid, adipic acid]", "values": [{"measurement": "Adipic Acid concentration in the solution", "setting": "[1]; [5]", "result": 0.7, "unit": "wt %"}, {"measurement": "Adipic Acid concentration in the solution", "setting": "[1]; [6]", "result": 1.2, "unit": "wt %"}, {"measurement": "Adipic Acid concentration in the solution", "setting": "[1]; [7]", "result": 2, "unit": "wt %"}, {"measurement": "Adipic Acid concentration in the solution", "setting": "[1]; 51 ° C., MgCl2 solution, over precipitate", "result": 3.5, "unit": "wt %"}, {"measurement": "Adipic Acid concentration in the solution", "setting": "[1]; 60 ° C., MgCl2 solution, over precipitate", "result": 6.1, "unit": "wt %"}, {"measurement": "Adipic Acid concentration in the solution", "setting": "[1]; 70 ° C., MgCl2 solution, over precipitate", "result": 11.5, "unit": "wt %"}, {"measurement": "Adipic Acid concentration in the solution", "setting": "[1]; 81 ° C., MgCl2 solution after HCl acidulation, no precipitate yet", "result": 14.2, "unit": "wt %"}]}, {"smiles": "O=C(O)/C=C/C(=O)O", "note": "[Fumaric Acid, fumaric acid]", "values": [{"measurement": "Fumaric Acid concentration in the solution", "setting": "[1]; [5]", "result": 0.5, "unit": "wt %"}, {"measurement": "Fumaric Acid concentration in the solution", "setting": "[1]; [6]", "result": 0.5, "unit": "wt %"}, {"measurement": "Fumaric Acid concentration in the solution", "setting": "[1]; 39 ° C., MgCl2 solution, over precipitate", "result": 0.7, "unit": "wt %"}, {"measurement": "Fumaric Acid concentration in the solution", "setting": "[1]; [8]", "result": 1.1, "unit": "wt %"}, {"measurement": "Fumaric Acid concentration in the solution", "setting": "[1]; [9]", "result": 1.6, "unit": "wt %"}]}, {"smiles": "C=C(CC(=O)O)C(=O)O", "note": "[Itaconic Acid, itaconic acid]", "values": [{"measurement": "Itaconic Acid concentration in the solution", "setting": "[1]; [5]", "result": 2.6, "unit": "wt %"}, {"measurement": "Itaconic Acid concentration in the solution", "setting": "[1]; [6]", "result": 4.1, "unit": "wt %"}, {"measurement": "Itaconic Acid concentration in the solution", "setting": "[1]; 41 ° C., MgCl2 solution, over precipitate", "result": 6.0, "unit": "wt %"}, {"measurement": "Itaconic Acid concentration in the solution", "setting": "[1]; [8]", "result": 9.4, "unit": "wt %"}, {"measurement": "Itaconic Acid concentration in the solution", "setting": "[1]; [9]", "result": 13.2, "unit": "wt %"}]}, {"smiles": "[Cl-].[Cl-].[Mg+2]", "note": "[MgCl2, magnesium chloride]", "values": [{"measurement": "saturation point in water", "setting": "[2]", "result": 55, "unit": "g/100 g water"}]}, {"smiles": "O=C(O)CCC(=O)O", "note": "[Succinic Acid, succinic acid]", "values": [{"measurement": "succinic acid present in the filtrate", "setting": "[3]; HPLC, filtrate after cooling from 115° C. to 20° C., 31.7 wt. % magnesium chloride", "result": 0.22, "unit": "wt. %"}, {"measurement": "Content succínic, Solution", "setting": "[3]; solution after cooling to 20° C. and filtration, concentrated to 31.7 wt. % magnesium chloride", "result": 0.22, "unit": "%"}, {"measurement": "Succinic Acid concentration in the solution", "setting": "[4]; [5]", "result": 2.10, "unit": "wt. %"}, {"measurement": "Succinic Acid concentration in the solution", "setting": "[4]; 31 ° C., MgCl2 solution, over precipitate", "result": 3.40, "unit": "wt. %"}, {"measurement": "Succinic Acid concentration in the solution", "setting": "[4]; [7]", "result": 5.00, "unit": "wt. %"}, {"measurement": "Succinic Acid concentration in the solution", "setting": "[4]; 52 ° C., MgCl2 solution, over precipitate", "result": 8.20, "unit": "wt. %"}, {"measurement": "Succinic Acid concentration in the solution", "setting": "[4]; 62 ° C., MgCl2 solution after HCl acidulation, no precipitate yet", "result": 13.13, "unit": "wt. %"}]}]}
